Test [1] concerns the target T1, human recombinant adrenergic α2A receptor (Homo sapiens, UniProt P08913).
T1 construct: expressed in transfected cells; host or cells: insect Sf9 cells
T1 sequence (P08913 1-465): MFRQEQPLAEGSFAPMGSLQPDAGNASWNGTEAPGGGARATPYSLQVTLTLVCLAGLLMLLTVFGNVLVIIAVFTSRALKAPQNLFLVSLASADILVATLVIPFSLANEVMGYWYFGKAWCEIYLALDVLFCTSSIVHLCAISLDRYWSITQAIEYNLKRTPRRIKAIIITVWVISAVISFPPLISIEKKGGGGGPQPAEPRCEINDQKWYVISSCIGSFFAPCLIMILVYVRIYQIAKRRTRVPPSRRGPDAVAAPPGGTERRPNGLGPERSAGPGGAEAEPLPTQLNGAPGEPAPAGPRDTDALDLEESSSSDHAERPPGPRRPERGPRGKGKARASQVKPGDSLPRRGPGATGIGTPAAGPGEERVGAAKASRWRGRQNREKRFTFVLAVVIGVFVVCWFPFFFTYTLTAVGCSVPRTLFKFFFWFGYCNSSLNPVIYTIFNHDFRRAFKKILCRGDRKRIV
As to the kind of experiment: Adrenergic α2A radioligand binding ([3H]MK-912). The settings on record: read-out: Adrenergic (0.1 μM) a2A, percent inhibition of specific binding; compound at 0.1 μM; 1 nM [3H]MK-912. As for the experimental part:
To evaluate in radioligand binding assays the activity of compounds of the invention, human recombinant adrenergic α2A receptor expressed in insect Sf9 cells (Uhlen, S. et al, J. Pharmacol. Exp. Ther. 271:1558, 1994) in a modified Tris-HCl buffer (50 mM Tris-HCl, pH 7.4, 12.5 mM MgCl2, 2 mM EDTA) was used. Compounds of invention were incubated with 1 nM [^3H]MK-912 for 60 min at 25° C. MK-912 is (2S-trans)-1,3,4,5′,6,6′,7,12b-octahydro-1′,3′-dimethyl-spiro[2H-benzofuro[2,3-a]quinolizine-2,4′(1′H)-pyrimidin]-2′(3′H)-one hydrochloride Non-specific binding was estimated in the presence of 10 μM WB-4101 (2-(2,6-Dimethoxyphenoxyethyl)aminomethyl-1,4-benzodioxane hydrochloride). Receptor proteins were filtered and washed, the filters were then counted to determine [^3H]MK-912 specifically bound. […] Compounds of the invention were tested in this biochemical assay and percent inhibition of specific binding was determined.

For test [2], the target named is T2, human recombinant histamine H1 receptor (Homo sapiens, UniProt P35367).
T2 construct: expressed in transfected cells; host or cells: CHO-K1
The test can be described thus: Histamine H1 radioligand binding ([3H]Pyrilamine). Particulars: read-out: Histamine H1 Binding (1 μM), percent inhibition of specific binding; compound at 1 μM; 1.2 nM [3H]Pyrilamine. The gist of the method:
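Results expressed as percent inhibition of specific [3H]pyrilamine binding, counted on filters after washing. Receptor source: CHO-K1 cells expressing recombinant human H1, in modified Tris-HCl buffer (50 mM, pH 7.4; 2 mM MgCl2, 100 mM NaCl, 250 mM sucrose). 1 μM pyrilamine defined non-specific binding.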

Test [3] deals with T3, human recombinant serotonin (5-Hydroxytryptamine) 5-HT2C receptor (Homo sapiens, UniProt P28335).
T3 construct: expressed in transfected cells; host or cells: CHO-K1
T3 sequence (P28335 33-458): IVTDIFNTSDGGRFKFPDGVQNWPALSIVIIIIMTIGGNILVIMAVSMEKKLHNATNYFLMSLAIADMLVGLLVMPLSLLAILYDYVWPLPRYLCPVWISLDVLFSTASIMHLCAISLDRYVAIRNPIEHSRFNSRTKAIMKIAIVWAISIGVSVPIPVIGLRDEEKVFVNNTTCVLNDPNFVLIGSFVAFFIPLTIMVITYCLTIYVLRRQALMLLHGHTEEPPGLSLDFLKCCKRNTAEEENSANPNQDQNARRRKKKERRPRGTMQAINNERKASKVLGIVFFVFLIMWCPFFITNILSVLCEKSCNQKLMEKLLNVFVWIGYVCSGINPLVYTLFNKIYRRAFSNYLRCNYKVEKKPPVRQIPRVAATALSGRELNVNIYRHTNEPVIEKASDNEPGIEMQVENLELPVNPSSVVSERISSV
As to the kind of experiment: Serotonin 5-HT2C radioligand binding ([3H]Mesulergine). The settings on record: compound at 0.1 μM; read-out: Inhibition of ligand binding, Serotonin 5-HT2C (percent inhibition of specific binding). As for the experimental part:
Compounds of the invention were incubated with 1 nM [^3H]Mesulergine for 60 min at 25° C. Non-specific binding was estimated in the presence of 1 μM Mianserin. Receptor proteins were filtered and washed, the filters were then counted to determine [^3H]Mesulergine specifically bound.

Test [4] addresses T4, human recombinant adrenergic α2B receptor (Homo sapiens, UniProt P18089).
T4 construct: expressed in transfected cells; host or cells: CHO-K1
T4 sequence (P18089 1-450): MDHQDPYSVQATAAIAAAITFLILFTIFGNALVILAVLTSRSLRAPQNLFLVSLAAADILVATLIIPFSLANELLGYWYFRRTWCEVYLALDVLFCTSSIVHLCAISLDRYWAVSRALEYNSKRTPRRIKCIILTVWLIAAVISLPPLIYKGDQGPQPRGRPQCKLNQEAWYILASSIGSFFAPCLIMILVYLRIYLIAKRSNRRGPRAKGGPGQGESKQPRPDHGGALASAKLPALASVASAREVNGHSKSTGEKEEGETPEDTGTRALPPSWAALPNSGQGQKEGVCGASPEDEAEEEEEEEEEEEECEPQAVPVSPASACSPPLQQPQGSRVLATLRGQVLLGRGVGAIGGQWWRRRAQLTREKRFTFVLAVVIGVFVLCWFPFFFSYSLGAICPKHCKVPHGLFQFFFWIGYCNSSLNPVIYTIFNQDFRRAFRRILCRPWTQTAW
As to the kind of experiment: Adrenergic α2B radioligand binding ([3H]Rauwolscine). The settings on record: read-out: Adrenergic (0.1 μM) a2B, percent inhibition of specific binding; compound at 0.1 μM; 2.5 nM [3H]Rauwolscine.
Protocol: To evaluate in radioligand binding assays the activity of compounds of the invention, human recombinant adrenergic α2B receptor expressed in Chinese hamster ovary (CHO) K1 cells (Uhlen, S. et al, Eur. J. Pharmacol. 343(1):93, 1998) in a modified Tris-HCl buffer (50 mM Tris-HCl, pH 7.4, 12.5 mM MgCl2, 1 mM EDTA, 0.2% BSA) was used. Compounds of the invention were incubated with 2.5 nM [^3H]Rauwolscine for 60 min at 25° C. Non-specific binding was estimated in the presence of 10 μM Prazosin. Receptor proteins were filtered and washed, the filters were then counted to determine [^3H]Rauwolscine specifically bound. […] Compounds of the invention were tested in this biochemical assay and percent inhibition of specific binding was determined.

The source of these data is US9187471B2, “Pyrido [4,3-b] indole and pyrido [3,4-b] indole derivatives and methods of use” (Medivation Technologies, Inc., priority 2010, dated 2015).

Structures are written as SMILES.

T2 sequence (P35367 whole entry): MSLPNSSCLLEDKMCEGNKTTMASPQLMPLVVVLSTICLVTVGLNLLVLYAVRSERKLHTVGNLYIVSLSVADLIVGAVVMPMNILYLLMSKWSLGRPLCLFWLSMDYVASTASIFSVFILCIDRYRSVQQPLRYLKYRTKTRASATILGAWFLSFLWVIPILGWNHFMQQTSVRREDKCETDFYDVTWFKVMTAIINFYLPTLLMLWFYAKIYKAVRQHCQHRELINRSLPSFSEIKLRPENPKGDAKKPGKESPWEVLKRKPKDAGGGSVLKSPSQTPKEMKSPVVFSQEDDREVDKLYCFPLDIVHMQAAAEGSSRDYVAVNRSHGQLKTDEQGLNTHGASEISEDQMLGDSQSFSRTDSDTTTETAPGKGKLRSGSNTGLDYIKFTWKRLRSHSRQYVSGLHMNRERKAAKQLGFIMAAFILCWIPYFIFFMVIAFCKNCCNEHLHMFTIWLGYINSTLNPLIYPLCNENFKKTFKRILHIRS

On to `Cc1ccc2c(c1)c1c(n2-c2cscc2-c2ccc3c(ccn3C)c2)CCN(C)C1` [Compound 33], for which the inhibition (commonly the drop in the measured response relative to a control, in per cent) at 0.1 µM turned out to be 100% in test [1] and 49% in test [3]. Also, the inhibition at 1 µM in test [2] was -7%.

On to `COc1ccc(-c2cscc2-n2c3c(c4cc(C)ccc42)CN(C)CC3)cc1` [Compound 37], for which the inhibition at 0.1 µM was found to be 94% in test [1] and 81% in test [3]. Further, in test [2], the inhibition at 1 µM was determined as 6%.

As to `Cc1csc(-c2cscc2-n2c3c(c4cc(C)ccc42)CN(C)CC3)c1` [Compound 50], the inhibition at 0.1 µM in test [1] was found to be 93%; in test [3] it was 92%. In test [2], the inhibition at 1 µM came to 54%.

As for `Cc1ccc2c(c1)c1c(n2-c2cscc2-c2ccc3cnccc3c2)CCN(C)C1` [Compound No. 68], the inhibition at 0.1 µM in test [1] stood at 90%; in test [3], 10%. In addition, in test [2], the inhibition at 1 µM was 30%.

On to `Cc1ccc2c(c1)c1c(n2-c2cscc2-c2ccc(S(C)(=O)=O)cc2)CCN(C)C1` [Compound No. 76], for which the inhibition at 0.1 µM was found to be 90% in test [1] and 24% in test [3]. The inhibition at 1 µM in test [2] came to 19%.

With `Cc1ccc2c(c1)c1c(n2-c2cscc2-c2ccc(C)s2)CCN(C)C1` [Compound No. 79], the values for the inhibition at 0.1 µM in test [1], in test [4] and in test [3] were 92%, 106% and 92%, respectively. The inhibition at 1 µM in test [2] was determined as 61%.

As to `Cc1ccc2c(c1)c1c(n2-c2ccccc2-c2ccc3c(ccn3C)c2)CCN(C)C1` [Compound No. 85, 2,8-dimethyl-5-(2-(1-methyl-1H-indol-5-yl)phenyl)-2,3,4,5-tetrahydro-1H-pyrido[4,3-b]indole], the inhibition at 0.1 µM amounted to 94% in test [1] and 50% in test [3]. Moreover, the inhibition at 1 µM in test [2] was 8%.

For the molecule `CNC(=O)c1cccc(-c2ccc(-n3c4c(c5cc(C)ccc53)CN(C)CC4)nc2)c1` [Compound No. 143, 3-(6-(2,8-dimethyl-3,4-dihydro-1H-pyrido[4,3-b]indol-5(2H)-yl)pyridin-3-yl)-N-methylbenzamide], the inhibition at 0.1 µM in test [1] came out at 44%; in test [4] it was 77%; in test [3], 44%. Moreover, the inhibition at 1 µM in test [2] came to 8%.

For `Cc1ccc2c(c1)c1c(n2-c2ccc(-c3ccnn3C)cn2)CCN(C)C1` [Compound No. 146, 2,8-dimethyl-5-(5-(1-methyl-1H-pyrazol-5-yl)pyridin-2-yl)-2,3,4,5-tetrahydro-1H-pyrido[4,3-b]indole], the inhibition at 1 µM in test [2] stood at 8%. Moreover, the inhibition at 0.1 µM in test [3] stood at 30%.

Regarding `Cc1ccc2c(c1)c1c(n2-c2ccc(-c3cccc4[nH]ncc34)cn2)CCN(C)C1` [Compound No. 147, 5-(5-(1H-indazol-4-yl)pyridin-2-yl)-2,8-dimethyl-2,3,4,5-tetrahydro-1H-pyrido[4,3-b]indole], in test [2], the inhibition at 1 µM amounted to 8%. In addition, in test [3], the inhibition at 0.1 µM is 69%.

In the case of `Cc1ccc2c(c1)c1c(n2-c2ccc(-c3sccc3C)cn2)CCN(C)C1` [Compound No. 148, 2,8-dimethyl-5-(5-(3-methylthiophen-2-yl)pyridin-2-yl)-2,3,4,5-tetrahydro-1H-pyrido[4,3-b]indole], in test [2], the inhibition at 1 µM was 5%. Further, the inhibition at 0.1 µM in test [3] was determined as 88%.

In the case of `Cc1ccc2c(c1)c1c(n2-c2cscc2-c2ccnn2C)CCN(C)C1` [Compound No. 150], the inhibition at 1 µM in test [2] worked out at 22%. Also, the inhibition at 0.1 µM in test [3] stood at 64%.

As for `Cc1ccc2c(c1)c1c(n2-c2cscc2-c2cc3ccccc3s2)CCN(C)C1` [Compound No. 151], the inhibition at 1 µM in test [2] came to 11%. The inhibition at 0.1 µM in test [3] amounted to 47%.

On to `Cc1ccc2c(c1)c1c(n2-c2cscc2C(=O)N(C)C)CCN(C)C1` [Compound No. 152], for which, in test [2], the inhibition at 1 µM is 16%. Moreover, in test [3], the inhibition at 0.1 µM stood at 22%.

Consider `CNC(=O)c1cccc(-c2cscc2-n2c3c(c4cc(C)ccc42)CN(C)CC3)c1` [Compound No. 154], for which, in test [2], the inhibition at 1 µM is 20%. The inhibition at 0.1 µM in test [3] is 67%.

As for `CNC(=O)c1ccc(-c2cscc2-n2c3c(c4cc(C)ccc42)CN(C)CC3)cc1` [Compound No. 155], in test [2], the inhibition at 1 µM worked out at 10%. The inhibition at 0.1 µM in test [3] worked out at 31%.

On to `Cc1ccc2c(c1)c1c(n2-c2ccc(-c3ccc(C)nc3)cn2)CCN(C)C1` [Compound No. 156, 2,8-dimethyl-5-(6′-methyl-3,3′-bipyridin-6-yl)-2,3,4,5-tetrahydro-1H-pyrido[4,3-b]indole], for which, in test [2], the inhibition at 1 µM was 12%. In test [3], the inhibition at 0.1 µM turned out to be 96%.

Take `Cc1ccc2c(c1)c1c(n2-c2ccc3nc(C)ccc3c2)CCN(C)C1` [Compound No. 157, 2,8-dimethyl-5-(2-methyl-quinolin-6-yl)-2,3,4,5-tetrahydro-1H-pyrido[4,3-b]indole]: the inhibition at 1 µM in test [2] is -17%. In test [3], the inhibition at 0.1 µM stood at 88%.

Regarding `Cc1ccc2c(c1)c1c(n2-c2cccc(-c3ccc(S(N)(=O)=O)cc3)c2)CCN(C)C1` [Compound No. 158, 3′-(2,8-dimethyl-3,4-dihydro-1H-pyrido[4,3-b]indol-5(2H)-yl)biphenyl-4-sulfonamide], the inhibition at 1 µM in test [2] was determined as 1%. For the same molecule, the inhibition at 0.1 µM in test [3] stood at 47%.
